Laboratory results as given in patent US8829014B2, “Thiazole and thiophene analogues, and their use in treating autoimmune diseases and cancers” (Board of Supervisors of Louisiana State University and …, priority 2006, dated 2014).

Tested on: carageenan-induced edema
Test: Carrageenan-induced rat paw edema test (anti-inflammatory activity)
Format: in vivo, Sprague-Dawley rats
Protocol: Sprague-Dawley rats, male and female, 150-250 g will be used in an edema test. Rats will be deprived of food but not water for 18 hours prior to the experiment. The test compounds will be administered with a blunt-tipped needle orally, 50 mg/kg, as a suspension in 0.1% sodium CMC (carboxymethylcellulose) vehicle. Alternatively, the test compounds will be injected intravenously, subcutaneously, or intraperitoneally. One hour later, 0.1 ml of a 1% carrageenan solution in saline will be injected in the sub-plantar region of the right hind paw of each rat. […] The reading will be repeated 3 hours later. The displacement readings give a measure of carageenan-induced edema. Any reduction in carageenan-induced edema with a test compound, as compared to saline control, is a measure of the anti-inflammatory activity of the test compound. The percentage protection at 50-mg/kg doses was calculated according to the following formula: % Protection=[(Control−Test)/Control]×100%.
Following treatment, the media from the VSMC and HUVEC incubations were removed, and the amount of lactate dehydrogenase (LDH) released into the medium was determined with a commercial kit and expressed as a % increase over vehicle-treated cells. HPT toxicity was determined by the ethidium homodimer (EthHD) uptake assay. […] The lead compounds were also tested in two pairs of cell lines from the skin or prostate, one tumorigenic and one non-tumorigenic, to test for differing toxicity or heightened sensitivity in the tumorigenic lines. The cells were treated for 48 h with vehicle (0.1% DMSO) or 10 μM of each drug candidate, and the viability of the cells was determined by the MTT assay, expressed as a % decrease in viability compared to vehicle-treated cells. The in vivo inflammation model measured the % inhibition of rat paw edema induced by carageenan injection.

[1] = Rattus norvegicus, po, 3 h, rat paw edema, 50 mg/kg, reading 3 hours after carrageenan; [(Control−Test)/Control]×100%; read-out: % Protection P
[2] = rat paw edema, 50 mg/kg, reading 3 hours after carrageenan; [(Control−Test)/Control]×100%; 50 mg/kg
[3] = rat paw edema, 50 mg/kg, reading 3 hours after carrageenan; [(Control−Test)/Control]×100%

For `O=c1c2ccccc2nc(-c2cc(-c3ccccc3)c(N3CCOCC3)s2)n1-c1ccccc1Cl` [Example 304, 3-(2-Chlorophenyl)-2-(5-morpholin-4-yl-4-phenyl-thiophen-2-yl)-3H-quinazolin-4-one], the inhibition in vivo at 50 mg/kg [1] was 37%.
With `O=c1c2ccccc2nc(-c2cc(-c3ccc(Cl)cc3)c(N3CCOCC3)s2)n1-c1ccccc1Cl` [Example 305, 2-[4-(4-Chlorophenyl)-5-morpholin-4-yl-thiophene-2-yl]-3-(2-chlorophenyl)-3H-quinazolin-4-one] the inhibition in vivo at 50 mg/kg [1] was 40%.
In the case of `CS(=O)(=O)c1ccc(-c2cc(-c3nc4ccccc4c(=O)n3-c3ccccc3Cl)sc2N2CCOCC2)cc1` [Example 307, 2-[4-(4-Methanesulphonyl-phenyl)-5-morpholin-4-yl-thiophen-2-yl]-3-(2-chloro-phenyl)-3H-quinazolin-4-one], the inhibition in vivo at 50 mg/kg [1] is reported as 31%.
Work on `CN1CCN(c2sc(-c3nc4ccccc4c(=O)n3-c3ccc(Cl)cc3)cc2-c2ccc(S(C)(=O)=O)cc2)CC1` [Example 318, 3-(4-Chlorophenyl)-2-[4-(4-methanesulfonyl-phenyl)-5-(4-methyl-piperazine-1-yl)-thiophen-2-yl]-3H-quinazolin-4-one] yielded an inhibition in vivo at 50 mg/kg [1] of 21%.
`COc1ccc(C(=O)c2sc(Nc3ccccc3)nc2N)cc1` [Example 321, 4-Amino-(2-phenylamino-thiazol-5-yl)-(4-methoxy-phenyl)-methanone] was tested, and the “% Protection P” value [2] was 12.25%.
With `Cc1ccc(C(=O)c2sc(Nc3ccccc3)nc2N)cc1` [Example 322, 4-Amino-(2-phenylamino-thiazol-5-yl)-p-tolyl-methanone] the “% Protection P” value [3] was 23.98%.
`Nc1nc(Nc2ccccc2)sc1C(=O)c1ccc(Cl)cc1` [Example 323, (4-Amino-2-phenylamino-thiazol-5-yl)-(4-chloro-phenyl)-methanone] was tested, and the inhibition in vivo at 50 mg/kg [1] was 43%.
`Nc1nc(Nc2ccccc2)sc1C(=O)c1ccc(Cl)cc1Cl` [Example 324, (4-Amino-2-phenylamino-thiazol-5-yl)-(2,4-dichloro-phenyl)-methanone] was tested, and the inhibition in vivo at 50 mg/kg [1] was 55%.
Work on `CS(=O)(=O)c1ccc(C(=O)c2sc(Nc3ccccc3)nc2N)cc1` [Example 325, (4-Amino-2-phenylamino-thiazol-5-yl)-(4-methanesulfonyl-phenyl)-methanone] yielded an inhibition in vivo at 50 mg/kg [1] of 12%.
Compound `CC(=O)Nc1ccc(C(=O)c2sc(Nc3ccccc3)nc2N)cc1` [Example 326, N-[4-(4-Amino-2-phenylamino-thiazole-5-carbonyl)-phenyl]-acetamide] has an inhibition in vivo at 50 mg/kg [1] of 34%.
With `Nc1nc(Nc2ccccc2)sc1C(=O)c1cccnc1` [Example 327, (4-Amino-2-phenylamino-thiazol-5-yl)-pyridin-3-yl-methanone] the inhibition in vivo at 50 mg/kg [1] was 32%.
`Nc1nc(Nc2ccccc2)sc1C(=O)c1ccncc1` [Example 328, (4-Amino-2-phenylamino-thiazol-5-yl)-pyridin-4-yl-methanone] showed an inhibition in vivo at 50 mg/kg [1] of 76%.
For `Nc1nc(Nc2ccccc2)sc1C(=O)c1ccccn1` [Example 329, (4-Amino-2-phenylamino-thiazol-5-yl)-pyridin-2-yl-methanone], the inhibition in vivo at 50 mg/kg [1] was 54%.
For `COc1c(C)cnc(-c2sc(Nc3ccccc3)nc2N)c1C` [Example 330, 5-(4-Methoxy-3,5-dimethyl-pyridin-2-yl)-N2-phenyl-thiazole-2,4-diamine], the inhibition in vivo at 50 mg/kg [1] was 24%.
`Nc1nc(Nc2ccc(Cl)cc2)sc1C(=O)c1ccc(Cl)cc1Cl` [Example 335, [4-Amino-2-(4-chloro-phenylamino)-thiazol-5-yl]-(2,4-dichloro-phenyl)-methanone] gave an inhibition in vivo at 50 mg/kg [1] of 30.3%.
Compound `CS(=O)(=O)c1ccc(C(=O)c2sc(Nc3ccc(Cl)cc3)nc2N)cc1` [Example 336, [4-Amino-2-(4-chloro-phenylamino)-thiazol-5-yl]-(4-methanesulfonyl-phenyl)-methanone] has an inhibition in vivo at 50 mg/kg [1] of 28.3%.
Work on `Nc1nc(Nc2ccc(Cl)cc2)sc1C(=O)c1ccncc1` [Example 339, [4-Amino-2-(4-chloro-phenylamino)-thiazol-5-yl]-pyridin-4-yl-methanone] yielded an inhibition in vivo at 50 mg/kg [1] of 12%.
In the case of `COc1c(C)cnc(-c2sc(Nc3ccc(Cl)cc3)nc2N)c1C` [Example 341], the “% Protection P” value [3] is reported as 32%.
`Cc1c(OCC(F)(F)F)ccnc1-c1sc(Nc2ccc(Cl)cc2)nc1N` [Example 342, (N2-(4-Chloro-phenyl)-5-[3-Methyl-4-(2,2,2-trifluoro-ethoxy)-pyridin-2-yl]-thiazole-2,4-diamine)] gave an inhibition in vivo at 50 mg/kg [1] of 76%.
For `COc1ccc(Nc2nc(N)c(C(=O)c3ccc(OC)cc3)s2)cc1` [Example 343, ([4-Amino-2-(4-methoxy-phenylamino)-thiazol-5-yl]-(4-methoxy-phenyl)-methanone)], the inhibition in vivo at 50 mg/kg [1] was 54%.
`COc1ccc(Nc2nc(N)c(C(=O)c3ccc(Cl)cc3)s2)cc1` [Example 345, ([4-Amino-2-(4-methoxy-phenylamino)-thiazol-5-yl]-(4-chloro-phenyl)-methanone)] gave an inhibition in vivo at 50 mg/kg [1] of 34.6%.
`COc1ccc(Nc2nc(N)c(C(=O)c3ccc(S(C)(=O)=O)cc3)s2)cc1` [Example 347, ([4-Amino-2-(4-methoxy-phenylamino)-thiazol-5-yl]-(4-methanesulfonyl-phenyl)-methanone)] gave an inhibition in vivo at 50 mg/kg [1] of 30.3%.
With `COc1ccc(Nc2nc(N)c(C(=O)c3ccc(NC(C)=O)cc3)s2)cc1` [Example 348, (N-{4-[4-Amino-2-(4-methoxy-phenylamino)-thiazole-5-carbonyl]-phenyl}-acetamide)] the inhibition in vivo at 50 mg/kg [1] was 28.3%.
In the case of `COc1ccc(Nc2nc(N)c(C(=O)c3ccncc3)s2)cc1` [Example 350, ([4-Amino-2-(4-methoxy-phenylamino)-thiazol-5-yl]-pyridin-4-yl-methanone)], the inhibition in vivo at 50 mg/kg [1] is reported as 25.8%.
`COc1ccc(Nc2nc(N)c(-c3ncc(C)c(OC)c3C)s2)cc1` [Example 352, (5-(4-Methoxy-3,5-dimethyl-pyridin-2-yl)-N2-(4-methoxy-phenyl)-thiazole-2,4-diamine)] was tested, and the inhibition in vivo at 50 mg/kg [1] was 23%.
With `COc1ccc(C(=O)c2sc(Nc3ccccc3)nc2NC(=O)Nc2ccc(F)cc2)cc1` [Example 354, 1-(4-Fluoro-phenyl)-3-[5-(4-methoxy-benzoyl)-2-phenylamino-thiazol-4-yl]-urea] the “% Protection P” value [2] was 26.27%.
`COc1ccc(C(=O)c2sc(Nc3ccc(Cl)cc3)nc2NC(=O)Nc2ccc(F)cc2)cc1` [Example 355, 1-[2-(4-Chloro-phenylamino)-5-(4-methoxy-benzoyl)-thiazol-4-yl]-3-(4-fluoro-phenyl)-urea] was tested, and the inhibition in vivo at 50 mg/kg [1] was 62.6%.
`O=C(Nc1ccc(F)cc1)Nc1nc(Nc2ccc(Cl)cc2)sc1C(=O)c1ccc(Cl)cc1` [Example 357, 1-[5-(4-Chloro-benzoyl)-2-(4-chloro-phenylamino)-thiazol-4-yl]-3-(4-fluoro-phenyl)-urea] was tested, and the inhibition in vivo at 50 mg/kg [1] was 24.3%.
Compound `O=C(Nc1ccc(F)cc1)Nc1nc(Nc2ccc(Cl)cc2)sc1C(=O)c1ccc(Cl)cc1Cl` [Example 358, 1-[2-(4-Chloro-phenylamino)-5-(2,4-dichloro-benzoyl)-thiazol-4-yl]-3-(4-fluoro-phenyl)-urea] has an inhibition in vivo at 50 mg/kg [1] of 72.5%.
`O=C(Nc1ccc(F)cc1)Nc1nc(Nc2ccc(Cl)cc2)sc1C(=O)c1cccnc1` [Example 359, 1-[2-(4-Chloro-phenylamino)-5-(pyridine-3-carbonyl)-thiazol-4-yl]-3-(4-fluoro-phenyl)-urea] showed an inhibition in vivo at 50 mg/kg [1] of 64.2%.
